In publication PMC13168289, “Potent acridone antimalarial against all three life stages of Plasmodium” (Nature Communications, 2026):
Where “and” joins values, the source holds several entries; their conditions need not be identical. Identical values can stand only once. Like-named read-outs stand apart in the source and are kept apart here.

Key:
[1] = system: P. yoelii wild type, ATV^r and ELQ-300^r clones; experiment: 4-day suppression model with ATV- and ELQ-300-resistant clones; format: in vivo, P. yoelii in CF1 mice; details: (95% CI)
From the text: Animals were housed at the VAPORHCS in Thoren Maxi-Miser microisolator cages (78 sq. in. floor space) with a maximum density of five females or four males per cage. Cages were maintained on a 12-h light/dark cycle and provided with autoclaved nesting materials (nestlets) for environmental enrichment. All mice had ad libitum access to food and water. Four- to five-week-old female and male outbred CF1 mice (Charles River Laboratories, Raleigh, NC, USA) were randomly assigned to treatment and control groups using a simple randomization procedure (e.g., computer-generated random numbers) to ensure balanced distribution of baseline body weights and starting parasitemia levels across all cohorts. Groups of four mice (n = 4, mean body weight of each group was ~30 g) were infected intravenously with 3.5 × 10^4 P. yoelii (Kenya strain, MRA-428) from a donor animal. Drug administration commenced the day after the animals were inoculated (Day 1). The test drug or the drug combination was dissolved in PEG-400 and administered by oral gavage once daily for 4 successive days in the 4-day suppression model, but only once on Day 1 in the single-dose cure model. Blood was collected via the tail vein with the aid of a syringe needle on Day 5 and then at weekly intervals through Day 28. Blood films were Giemsa-stained and examined microscopically to determine the level of parasitemia. All mice were observed daily to assess clinical signs. Animals with observable parasitemia following the experiments were euthanized; animals cleared of parasitemia from their bloodstream were observed daily with assessment of parasitemia performed weekly until Day 28, at which point, the animal(s) were scored as cured of the infection and then humanely euthanized. All treated mice with a negative smear on Day 28 were considered cured (100% protection).
(§1) Drug susceptibility assays against P. falciparum strains were performed using a SYBR Green based assay. D6 and Dd2 were obtained from MR4. Tm90-C2B was obtained from WRAIR. Dd2-D1^I22L and ELQ-300 were obtained from VAPORHCS. D10yDHODH was obtained as a courtesy from Dr. Akhil Vaidya at Drexel University. P. yoelii ATV^r and ELQ-300^r clones were obtained from VAPORHCS.

[2] = system: P. falciparum mutant T111 lines; experiment: drug susceptibility of T111-selected cyt b mutant lines; format: cell-based, Plasmodium falciparum
Protocol: DNA extractions were performed on clonal parasites using the QIAamp DNA extraction kit (QIAGEN Inc, Valencia, CA) or ZYMO Quick gDNA Miniprep kit (Zymo Research Corp, Irvine, CA). For sequencing of the open reading frame of pfcytb, PCR was performed with genomic DNA using forward and reverse flanking primers for cyt b primer 1: 5’-[…]-3’ and primer 2: 5’-[…]-3’. PCR products were subjected to enzymatic cleanup with ExoSAP-IT (Thermo Fisher Scientific) and sent for Sanger sequencing (Eurofins Genomics, Louisville, KY) with PCR primer 2 paired with an internal forward primer: 5’-[…]-3’ and an internal reverse primer: 5’-[…]-3’. Sequences were assembled using 4Peaks software (Nucleobytes, Amsterdam, Netherlands) and aligned with Clustal Omega (EMBL-EBI). For sequencing of the open reading frame of pfdhodh, PCR was performed with genomic DNA using forward primer: 5’-[…]-3’ and reverse primer: 5’-[…]-3’. PCR products were prepared for Sanger sequencing and analyzed as described above, except using two forward primers: 5’-[…]-3’ and 5’-[…]-3’ and with two reverse primers: 5’-[…]-3’ and 5’-[…]-3’.
as §1

[3] = system: P. falciparum D6, Dd2, Tm90-C2B, Dd2-D1^I22L, D10yDHODH; experiment: microbe, parasite or virus in culture; format: cell-based, Plasmodium falciparum
Protocol: as §1

[4] = system: P. cynomolgi hypnozoites and schizonts; experiment: in vitro liver-stage P. cynomolgi assay in primary rhesus hepatocytes; format: cell-based, Plasmodium cynomolgi
Protocol: The liver-stage P. cynomolgi assay was designed to identify anti-hypnozoite drugs utilizing a 384-well in vitro culture system[31],[37]. Briefly, cryopreserved primary simian hepatocytes (donor lots XGB, OQB, and QHO: BioIVT, Inc.) were seeded in collagen-coated 384-well plates and infected with P. cynomolgi bastianellii (B strain) sporozoites dissected from infected Anopheles dirus mosquitoes. Test compounds were solubilized in 100% DMSO and serially diluted 2-fold to generate up to a 12-point dose-response curve, maintaining a final DMSO concentration of 0.1% across all wells. Two distinct treatment modes were evaluated. For the prophylactic assay, to assess the prevention of infection, compound exposure began 1-hour post-infection with daily media changes on Days 1 and 2. For the radical cure assay, to assess activity against established liver forms, drugs were administered daily from Day 4 through Day 7 post-infection. […] For readout on Day 8, plates were fixed and stained via immunofluorescence to visualize parasite forms (hypnozoites and schizonts) and hepatocyte nuclei, and images were acquired using an Operetta CLS high-content imaging system (PerkinElmer). Host hepatocyte viability was measured in parallel to determine compound toxicity. Parasite forms were automatically quantified using Harmony 4.9 software, and percent inhibition and toxicity were calculated relative to in-plate DMSO vehicle controls. IC50 and CC50 (half-maximal cytotoxic concentrations) were determined by fitting dose-response data to a four-parameter logistic (variable slope) model using a custom Python script incorporating a grid search algorithm.

[5] = system: luciferase-expressing P. berghei sporozoites; experiment: liver-stage prophylaxis murine model with IVIS bioluminescence imaging; format: in vivo, P. berghei in Albino C57BL/6 mice; details: Days -1, 0, 1
From the text: Four- to six-week-old female inbred Albino C57BL/6 mice (18–22 g, Jackson Laboratories, Bar Harbor, ME, USA) were utilized. Animals were assigned unique study numbers via ear tags and cage cards and were randomly assigned to treatment or control groups (n = 5 per group) using a weigh-stratified randomization procedure. All animals were quarantined and acclimatized for 7 days prior to study initiation and were housed in a 12:12 light/dark cycle with food and water provided ad libitum. Mice were infected intravenously with 10^4 luciferase-expressing P. berghei sporozoites (ANKA strain) via tail vein injection on Day 0. Drugs were dissolved in PEG-400 and administered orally once per day on Day -1, Day 0, and Day 1. […] Infection reduction was assessed by comparing the bioluminescence signals emitted by treated groups with signals emitted by the vehicle control-treated group at that time point. Later blood-stage parasitemia was determined via flow cytometry. […] Long-term blood-stage efficacy was evaluated starting on Day 6 post-infection and continued for up to 31 days using flow cytometry.
In vivo antimalarial efficacy studies were performed as described above.

**Q.** For `O=C1C(O)=C([C@H]2CC[C@H](c3ccc(Cl)cc3)CC2)C(=O)c2ccccc21` [ATV, atovaquone], which ED50 ([1]; P. yoelii ATVrY268S) is on record?
**A.** 15.3 (9.9–24) mg/kg/day

**Q.** And the ED50 ([1]; P. yoelii ELQ-300rI22L)?
**A.** 0.068 (0.053–0.087) mg/kg/day

**Q.** And the ED50 ([1]; P. yoelii wild type)?
**A.** 0.064 (0.049–0.085) mg/kg/day

**Q.** What about the IC50 ([2]; Plasmodium falciparum, DD2, read-out: inhibition IC50 vs P. falciparum, Dd2) of the same compound?
**A.** 0.44 ± 0.052 nM

**Q.** What about the IC50 ([2]; Plasmodium falciparum, DD2, read-out: inhibition IC50 vs P. falciparum, Dd2-A^131S-140I-259L) of the same compound?
**A.** 4.7 ± 0.44 nM

**Q.** What about the IC50 ([2]; Plasmodium falciparum, DD2, read-out: inhibition IC50 vs P. falciparum, Dd2-A^131S-140I-259L-264L) of the same compound?
**A.** 15 ± 2 nM

**Q.** And the IC50 ([2]; Plasmodium falciparum, DD2, read-out: inhibition IC50 vs P. falciparum, Dd2-B^87V-131S-140I-259L)?
**A.** 10 ± 1.4 nM

**Q.** What about the IC50 ([2]; Plasmodium falciparum, DD2, read-out: inhibition IC50 vs P. falciparum, Dd2-B^131S-140I-259L-264L) of the same compound?
**A.** 11 ± 1.8 nM

**Q.** And the IC50 ([2]; Plasmodium falciparum, DD2, read-out: inhibition IC50 vs P. falciparum, Dd2-C0^119L-131S-259L (pfdhodh mutation))?
**A.** 15 ± 0.46 nM

**Q.** What about the IC50 ([2]; Plasmodium falciparum, DD2, read-out: inhibition IC50 vs P. falciparum, Dd2-C1^131S-140I-259L (pfdhodh mutation)) of the same compound?
**A.** 25 ± 7.2 nM

**Q.** What about the IC50 ([2]; Plasmodium falciparum, DD2, read-out: inhibition IC50 vs P. falciparum, Dd2^131S) of the same compound?
**A.** 0.34 ± 0.049 nM

**Q.** And the IC50 ([2]; Plasmodium falciparum, DD2, read-out: inhibition IC50 vs P. falciparum, Dd2^131S-259L)?
**A.** 1.5 ± 0.17 nM

**Q.** And the IC50 ([2]; Plasmodium falciparum, DD2, read-out: inhibition IC50 vs P. falciparum, Dd2^259L)?
**A.** 6.6 ± 1.9 nM

**Q.** And the IC50 ([3]; Plasmodium falciparum, read-out: in vitro IC50 vs P. falciparum, D6)?
**A.** 0.073 ± 0.01 nM

**Q.** And the IC50 ([3]; Plasmodium falciparum, read-out: in vitro IC50 vs P. falciparum, D10yDHODH)?
**A.** > 2500 nM

**Q.** And the IC50 ([3]; Plasmodium falciparum, read-out: in vitro IC50 vs P. falciparum, Dd2)?
**A.** 0.13 ± 0.012 nM

**Q.** And the IC50 ([3]; Plasmodium falciparum, read-out: in vitro IC50 vs P. falciparum, Dd2-D1^I22L (ELQ-300-resistant))?
**A.** 0.007 ± 0.0025 nM

**Q.** What about the IC50 ([3]; Plasmodium falciparum, read-out: in vitro IC50 vs P. falciparum, Tm90-C2B (cyt b Y268S, ATV-resistant)) of the same compound?
**A.** 8538 ± 65 nM

**Q.** And the IC50 ([4]; Plasmodium cynomolgi, Hepatocyte, in Macaca mulatta, prophylactic mode, hypnozoite, read-out: inhibition IC50)?
**A.** > 1200 nM

**Q.** What about the IC50 ([4]; Plasmodium cynomolgi, Hepatocyte, in Macaca mulatta, prophylactic mode, schizont, read-out: inhibition IC50) of the same compound?
**A.** 9.3 nM

**Q.** What about the IC50 ([4]; Plasmodium cynomolgi, Hepatocyte, in Macaca mulatta, radical cure mode, hypnozoite, read-out: inhibition IC50) of the same compound?
**A.** 2460 nM

**Q.** And the IC50 ([4]; Plasmodium cynomolgi, Hepatocyte, in Macaca mulatta, radical cure mode, schizont, read-out: inhibition IC50)?
**A.** 2250 nM

**Q.** And the IC50 ([4]; Plasmodium cynomolgi, Hepatocyte, in Macaca mulatta, summary in response to reviewers, read-out: IC50 values against hypnozoites)?
**A.** > 2000 nM

**Q.** Which results are given for `O=c1c2ccc(Oc3ccc(OC(F)(F)F)cc3)cc2[nH]c2cc(Cl)cc(F)c12` [T111]?
**A.** protection from liver-stage infection ([5]; 1 mg/kg/day oral): did not clear liver-stage infection; protection from liver-stage infection ([5]; 4 mg/kg/day oral): did not clear liver-stage infection; protection from liver-stage infection ([5]; 10 mg/kg/day oral): full protection; ED50 ([1]; P. yoelii ATVrY268S): 0.31 (0.29–0.34) mg/kg/day and 0.31 mg/kg/day; ED50 ([1]; P. yoelii ELQ-300rI22L): 0.25 (0.21–0.30) mg/kg/day and 0.25 mg/kg/day; ED50 ([1]; P. yoelii wild type): 0.24 (0.20–0.29) mg/kg/day and 0.24 mg/kg/day; IC50 ([2]; Dd2-A^131S-140I-259L-264L, read-out: inhibition IC50 vs P. falciparum): 98 ± 12 nM; IC50 ([2]; Dd2-A^131S-140I-259L, read-out: inhibition IC50 vs P. falciparum): 74 ± 5.1 nM; IC50 ([2]; Dd2-B^87V-131S-140I-259L, read-out: inhibition IC50 vs P. falciparum): 129 ± 6.3 nM; IC50 ([2]; Dd2-B^131S-140I-259L-264L, read-out: inhibition IC50 vs P. falciparum): 114 ± 13 nM; IC50 ([2]; Dd2-C0^119L-131S-259L (pfdhodh mutation), read-out: inhibition IC50 vs P. falciparum): 144 ± 12 nM; IC50 ([2]; Dd2-C1^131S-140I-259L (pfdhodh mutation), read-out: inhibition IC50 vs P. falciparum): 223 ± 36 nM; IC50 ([2]; Dd2, read-out: inhibition IC50 vs P. falciparum): 0.15 ± 0.023 nM; IC50 ([2]; Dd2^131S-259L, read-out: inhibition IC50 vs P. falciparum): 12 ± 2.5 nM; IC50 ([2]; Dd2^131S, read-out: inhibition IC50 vs P. falciparum): 0.78 ± 0.081 nM; IC50 ([2]; Dd2^259L, read-out: inhibition IC50 vs P. falciparum): 4.4 ± 0.71 nM; IC50 ([3]; D6, read-out: in vitro IC50 vs P. falciparum): 0.028 ± 0.00036 nM; IC50 ([3]; D10yDHODH, read-out: in vitro IC50 vs P. falciparum): > 2500 nM; IC50 ([3]; Dd2, read-out: in vitro IC50 vs P. falciparum): 0.042 ± 0.0042 nM; IC50 ([3]; Tm90-C2B (cyt b Y268S, ATV-resistant), read-out: in vitro IC50 vs P. falciparum): 4 ± 0.076 nM; IC50 ([4]; prophylactic mode, hypnozoite, read-out: inhibition IC50): 93 nM; IC50 ([4]; prophylactic mode, schizont, read-out: inhibition IC50): 18 nM; residual population of hypnozoites ([4]; radical cure mode, highest concentrations tested): 10-20%; IC50 ([4]; radical cure mode, hypnozoite, read-out: inhibition IC50): 500 nM; IC50 ([4]; radical cure mode, schizont, read-out: inhibition IC50): 280 nM
